From PubChem BioAssay (NCI)
Where “and” joins values, the source holds several entries; their conditions need not be identical. Identical values can stand only once.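 Test compounds were applied to cells in 96-well plates for 48 hours at 5 doses. GI50 marks 50% less growth. The concentration for full growth arrest is given as TGI.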

Experiments:
Assay in all cases: NCI anticancer screen, dose series, 48 h
A549 NSCLC = system: A549 NSCLC
DU-145 prostate = system: DU-145 prostate
HCT-116 colon = system: HCT-116 colon
HCT-15 colon = system: HCT-15 colon
HT29 colon = system: HT29 colon
IGROV1 ovarian = system: IGROV1 ovarian
MDA-MB-231 breast = system: MDA-MB-231 breast
NCI-H522 lung = system: NCI-H522 lung
OVCAR-4 ovarian = system: OVCAR-4 ovarian
UACC-257 melanoma = system: UACC-257 melanoma

SMILES | GI50 (A549 NSCLC) | TGI (A549 NSCLC) | GI50 (DU-145 prostate) | TGI (DU-145 prostate) | GI50 (HCT-116 colon) | TGI (HCT-116 colon) | GI50 (HCT-15 colon) | TGI (HCT-15 colon) | GI50 (HT29 colon) | TGI (HT29 colon) | GI50 (IGROV1 ovarian) | TGI (IGROV1 ovarian) | GI50 (MDA-MB-231 breast) | TGI (MDA-MB-231 breast) | GI50 (NCI-H522 lung) | TGI (NCI-H522 lung) | TGI (OVCAR-4 ovarian) | GI50 (UACC-257 melanoma) | TGI (UACC-257 melanoma) | GI50 (OVCAR-4 ovarian)
CC[C@H](C)[C@H](NC(=O)[C@H]1CCCCN1C)C(=O)N(C)[C@H](C[C@@H](OC(C)=O)c1nc(C(=O)N[C@@H](Cc2ccccc2)C[C@H](C)C(=O)O)cs1)C(C)C | 0.00153 µM and 0.00165 µM | > 16.5 µM | 0.000475 µM and 0.00165 µM | 0.0367 µM | 0.000404 µM and 0.00165 µM | 0.017 µM | 0.00133 µM and 0.00165 µM | > 16.5 µM | 0.000356 µM and 0.00165 µM | 0.002 µM | 0.00604 µM and 0.00165 µM | > 16.5 µM | 0.00201 µM and 0.00165 µM | > 16.5 µM | 0.000347 µM and < 0.00165 µM | 0.0133 µM and < 0.00165 µM | > 16.5 µM | > 16.5 µM | > 16.5 µM | –
O=C1/C=C/[C@@H](O)[C@@H]2C[C@@H](O)C[C@H]2/C=C/CCC[C@H](C(F)(F)F)O1 | 2.1 µM | > 100 µM | 0.955 µM | > 100 µM | 0.153 µM | 0.385 µM | 0.32 µM | 6.98 µM | 0.0678 µM | 0.38 µM | 0.561 µM | 4.16 µM | 0.268 µM | 0.774 µM | 0.191 µM | 0.515 µM | > 100 µM | 0.053 µM | 1.01 µM | 0.139 µM
CCN1CCN(C(=O)[C@]23CCC(C)(C)C[C@@H]2C2=CC[C@@H]4[C@@]5(C)C/C(=C/c6ccncc6)C(=O)C(C)(C)[C@@H]5CC[C@@]4(C)[C@]2(C)CC3)CC1 | 1.66 µM | 4.65 µM | 1.67 µM | 3.19 µM | 1.35 µM | 2.87 µM | 1.25 µM | 2.73 µM | 1.38 µM | 3.14 µM | 1.6 µM | 3.13 µM | 1.63 µM | 3.16 µM | 1.53 µM | 3.39 µM | 3.2 µM | 1.51 µM | 3.28 µM | 1.54 µM
N=c1c2c(=N)n3c(nc2nc2n1-c1ccccc1Sc1ccccc1-2)sc1cc(Cl)ccc13 | 2.25 µM | > 100 µM | 3.55 µM | > 100 µM | 1.86 µM | > 100 µM | 2.14 µM | > 100 µM | 3.43 µM | > 100 µM | 3.51 µM | 35.4 µM | 2.8 µM | 14 µM | 1.2 µM | 6.99 µM | > 100 µM | 2.59 µM | 54.8 µM | 2.78 µM
CO[C@H]1C[C@@H]2CC[C@@H](C)[C@@](O)(O2)C(=O)C(=O)N2CCCC[C@H]2C(=O)O[C@H]([C@H](C)C[C@@H]2CC[C@@H](OCCO)[C@H](OC)C2)CC(=O)[C@H](C)C=C(C)[C@@H](O)[C@@H](OC)C(=O)[C@H](C)C[C@H](C)/C=C/C=C/C=C1C | < 0.01 µM | 22.3 µM | – | 16.5 µM | 3.43 µM | 18.9 µM | < 0.0115 µM | 18.5 µM | 2.55 µM | 21.1 µM | < 0.01 µM | 17 µM | 11.6 µM | 35.4 µM | – | 17.7 µM | 17.1 µM | 5.88 µM | 22.2 µM | < 0.0124 µM
CC(=O)[O][Hg][c]1c(C)c(C)cc(C)c1C | 5.55 µM | 15 µM | 1.86 µM | 4.62 µM | 1.85 µM | 3.66 µM | 1.49 µM | 3.88 µM | 1.6 µM | 6.31 µM | 0.703 µM | 2.37 µM | 0.87 µM | 2.33 µM | 0.194 µM | 0.486 µM | 1.37 µM | 1.36 µM | 2.73 µM | 0.566 µM
CC(=O)c1c(C)[nH]c(-c2nc3ccc(N4CCN(C)CC4)cc3[nH]2)c1-c1ccccc1 | 1.45 µM | 22.5 µM | 10.2 µM | 47 µM | 1.54 µM | 17.2 µM | 0.719 µM | 18.9 µM | 0.437 µM | 18.5 µM | 1.12 µM | 14.4 µM | 0.728 µM | 22.8 µM | 0.258 µM | 14.4 µM | 43.2 µM | 1.46 µM | 17.9 µM | 2.55 µM
O=[N+]([O-])c1cccc(C2CC(c3ccccc3)=Nc3ccccc3S2)c1 (stereo not given) | 30.6 µM | > 100 µM | 16.8 µM | 34.3 µM | 2.94 µM | 9 µM | 4.84 µM | 18.7 µM | 8.25 µM | 24.3 µM | 16.1 µM | 35.6 µM | 12.9 µM | 33.6 µM | 10.8 µM | 23.5 µM | 26.4 µM | 21.6 µM | 61 µM | 11.7 µM
O=C1c2ccccc2C(=O)c2c(OCCOCCO)cccc21 | – | > 100 µM | – | > 100 µM | – | > 100 µM | – | > 100 µM | – | > 100 µM | – | > 100 µM | – | > 100 µM | – | > 100 µM | > 100 µM | – | > 100 µM | –
CCCCCCCCCCCCCC[C@@H](O)[C@H]1CC[C@H]([C@H]2CC[C@H]([C@H](O)CCCCCC[C@@H](O)CC3=C[C@H](C)OC3=O)O2)O1 | 1.59 µM | > 25 µM | > 25 µM | > 25 µM | 2.2 µM | > 25 µM | 2.42 µM | 5.38 µM and > 25 µM | > 25 µM | 3.3 µM and > 25 µM | 2.61 µM | 8.75 µM and > 25 µM | 2.31 µM | 8.9 µM and > 25 µM | – | > 25 µM | > 25 µM | 1.62 µM | 6.01 µM and > 25 µM | –
COc1cc2c3c(n(C)c(=O)c2cc1OC)-c1ccc(C#N)cc1C3=O | > 100 µM | > 100 µM | > 100 µM | > 100 µM | > 100 µM | > 100 µM | > 100 µM | > 100 µM | > 100 µM | > 100 µM | 30.5 µM | > 100 µM | > 100 µM | > 100 µM | 52 µM | > 100 µM | > 100 µM | > 100 µM | > 100 µM | > 100 µM
CN(Cc1cnc2nc(N)nc(N)c2n1)c1ccc(C(=O)NC(CCC(=O)O)C(=O)O)cc1Br (stereo not given) | < 0.01 µM | > 100 µM | < 0.01 µM | > 100 µM | < 0.01 µM | 2.42 µM | < 0.01 µM | > 100 µM | < 0.01 µM | > 100 µM | < 0.01 µM | 1.01 µM | 6.02 µM | > 100 µM | < 0.01 µM | 31.2 µM | > 100 µM | 0.168 µM | 16.5 µM | 13.7 µM
COc1cc(-c2nn(-c3cccc(NC(=O)c4ccc(Cl)c(C(F)(F)F)c4)c3)cc2-c2ccncc2)ccc1Cl | 2.41 µM | > 32.5 µM | 5.46 µM | > 32.5 µM | 2.04 µM | > 32.5 µM | 3.15 µM | > 32.5 µM | 3.33 µM | > 26.1 µM | 1.78 µM | > 32.5 µM | 1.44 µM | > 32.5 µM | 0.794 µM | 5.52 µM | > 32.5 µM | 3.6 µM | > 32.5 µM | 6.26 µM
COc1ccc(N=N/C(C(=O)C(F)(F)F)=C(\O)c2ccc(Cl)cc2)cc1 | 3.83 µM | 16.8 µM | 14.6 µM | 70.8 µM | 6.64 µM | 26.2 µM | 4.68 µM | > 100 µM | 4.6 µM | 17.2 µM | 9.82 µM | > 100 µM | 9.11 µM | 66.9 µM | 4.93 µM | 32.1 µM | > 100 µM | 4.57 µM | 36.2 µM | 21.6 µM
CC1=C(Nc2ccc(N3CCN(C)CC3)cc2)C(=O)c2cncnc2C1=O | 3.96 µM | 17.6 µM | 4.34 µM | 16.9 µM | 2.48 µM | 6.13 µM | 12.9 µM | 41 µM | 10.2 µM | 61.8 µM | 2.24 µM | 5.17 µM | 2.67 µM | 7.78 µM | 16.1 µM | 39.3 µM | 2.28 µM | 2.34 µM | 6.42 µM | 1.09 µM
COc1cc2cc(Oc3ccc(NC(=O)Nc4ccc(Cl)c(Cl)c4)cc3)c(C)nc2cc1OC | 1.64 µM | 7.61 µM | 4.27 µM | 17.1 µM | 2.26 µM | 10.5 µM | 3.56 µM | > 100 µM | 2.34 µM | 4.89 µM | 5.61 µM | 46.1 µM | 2.46 µM | 12 µM | 1.74 µM | 8.43 µM | 8.3 µM | 2.31 µM | 6.28 µM | 2.67 µM
Cn1cc(C2=C(c3cn(CCCCCSC(=N)N)c4ccccc34)C(=O)NC2=O)c2ccccc21 | 4.4 µM | 8.65 µM | 3.58 µM | 6.93 µM | 1.08 µM | 4.53 µM | 3.8 µM | 8.03 µM | 1.11 µM | 4.03 µM | 3.51 µM | 7.93 µM | 3.91 µM | 7.49 µM | 1.92 µM | 5.59 µM | 7.32 µM | 4.01 µM | 7.47 µM | 3.16 µM
